We go through 13 molecules from patent publication US20090304692A1, “TRIAZINE COMPOUNDS AS PI3 KINASE AND MTOR INHIBITORS” (Wyeth, priority 2008, published 2009).

Test [1] has as its system human breast MDA-MB-361 tumor cell line. In words: In vitro cell culture growth assay (MTS), MDA-MB-361. In kind it is cell-based. The following applies: Homo sapiens, MDA-MB-361 cells, MTS, three days after drug treatment, read-out: IC50 MDA-MB-361.
The next test addresses PI3K-γ (Homo sapiens, UniProt P48736). In words: PI3K-gamma fluorescence polarization assay. The following applies: read-out: IC50 PI3Kγ. (Polarisation of emitted light reports the rotation of a fluorescent probe.)
The target of a further test is Human mTOR (FLAG-TOR) (Homo sapiens, UniProt P42345). Put plainly: mTOR kinase assay (DELFIA format, purified enzyme). The following applies: read-out: IC50 mTOR. The class given is biochemical.
Another test has as its target PI3K-α (Homo sapiens, UniProt P42336). In words: PI3K-alpha fluorescence polarization assay. The following applies: read-out: IC50 PI3Kα.
Test [2] has as its system human prostate PC3-mm2 tumor cell line. In words: In vitro cell culture growth assay (MTS), PC3-mm2. The class given is cell-based. As to conditions: Homo sapiens, PC3MM2, 72 h, PC3-mm2 cells, MTS, three days after drug treatment; read-out: IC50 PC3-mm2.

Where two headings read alike, the source gives them in different places.

Chain of Human mTOR (FLAG-TOR) (P42345 1360-2549 limits assumed): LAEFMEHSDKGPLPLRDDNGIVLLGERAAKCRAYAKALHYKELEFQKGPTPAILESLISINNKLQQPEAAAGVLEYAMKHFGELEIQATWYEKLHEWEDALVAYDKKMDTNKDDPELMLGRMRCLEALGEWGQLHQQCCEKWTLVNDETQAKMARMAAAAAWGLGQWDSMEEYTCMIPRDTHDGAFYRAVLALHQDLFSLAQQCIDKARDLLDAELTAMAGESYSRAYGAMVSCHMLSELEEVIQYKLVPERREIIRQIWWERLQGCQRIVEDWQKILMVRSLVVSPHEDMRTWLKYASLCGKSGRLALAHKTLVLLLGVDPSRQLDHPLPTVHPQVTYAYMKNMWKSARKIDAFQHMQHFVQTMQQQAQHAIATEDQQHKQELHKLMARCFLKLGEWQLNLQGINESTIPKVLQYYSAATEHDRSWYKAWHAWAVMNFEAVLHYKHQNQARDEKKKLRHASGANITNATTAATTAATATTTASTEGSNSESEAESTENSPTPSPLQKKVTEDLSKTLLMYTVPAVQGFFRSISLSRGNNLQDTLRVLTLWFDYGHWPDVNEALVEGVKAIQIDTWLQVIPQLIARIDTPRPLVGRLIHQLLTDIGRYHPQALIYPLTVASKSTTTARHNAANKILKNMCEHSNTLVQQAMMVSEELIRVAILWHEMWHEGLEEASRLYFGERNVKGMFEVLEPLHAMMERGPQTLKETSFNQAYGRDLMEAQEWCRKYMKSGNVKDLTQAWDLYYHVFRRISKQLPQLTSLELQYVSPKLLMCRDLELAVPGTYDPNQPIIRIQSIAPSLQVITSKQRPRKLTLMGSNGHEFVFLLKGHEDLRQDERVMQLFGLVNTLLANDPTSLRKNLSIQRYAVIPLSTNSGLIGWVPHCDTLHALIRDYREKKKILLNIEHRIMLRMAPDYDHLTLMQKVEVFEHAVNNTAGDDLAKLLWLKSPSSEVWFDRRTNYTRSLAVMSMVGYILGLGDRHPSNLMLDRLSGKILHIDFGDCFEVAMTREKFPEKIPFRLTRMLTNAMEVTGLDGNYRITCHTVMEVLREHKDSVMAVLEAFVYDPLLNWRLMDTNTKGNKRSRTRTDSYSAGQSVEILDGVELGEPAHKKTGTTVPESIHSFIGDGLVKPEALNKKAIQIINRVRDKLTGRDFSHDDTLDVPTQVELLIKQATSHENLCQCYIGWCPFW
Chain of PI3K-α (P42336 whole entry, species assumed): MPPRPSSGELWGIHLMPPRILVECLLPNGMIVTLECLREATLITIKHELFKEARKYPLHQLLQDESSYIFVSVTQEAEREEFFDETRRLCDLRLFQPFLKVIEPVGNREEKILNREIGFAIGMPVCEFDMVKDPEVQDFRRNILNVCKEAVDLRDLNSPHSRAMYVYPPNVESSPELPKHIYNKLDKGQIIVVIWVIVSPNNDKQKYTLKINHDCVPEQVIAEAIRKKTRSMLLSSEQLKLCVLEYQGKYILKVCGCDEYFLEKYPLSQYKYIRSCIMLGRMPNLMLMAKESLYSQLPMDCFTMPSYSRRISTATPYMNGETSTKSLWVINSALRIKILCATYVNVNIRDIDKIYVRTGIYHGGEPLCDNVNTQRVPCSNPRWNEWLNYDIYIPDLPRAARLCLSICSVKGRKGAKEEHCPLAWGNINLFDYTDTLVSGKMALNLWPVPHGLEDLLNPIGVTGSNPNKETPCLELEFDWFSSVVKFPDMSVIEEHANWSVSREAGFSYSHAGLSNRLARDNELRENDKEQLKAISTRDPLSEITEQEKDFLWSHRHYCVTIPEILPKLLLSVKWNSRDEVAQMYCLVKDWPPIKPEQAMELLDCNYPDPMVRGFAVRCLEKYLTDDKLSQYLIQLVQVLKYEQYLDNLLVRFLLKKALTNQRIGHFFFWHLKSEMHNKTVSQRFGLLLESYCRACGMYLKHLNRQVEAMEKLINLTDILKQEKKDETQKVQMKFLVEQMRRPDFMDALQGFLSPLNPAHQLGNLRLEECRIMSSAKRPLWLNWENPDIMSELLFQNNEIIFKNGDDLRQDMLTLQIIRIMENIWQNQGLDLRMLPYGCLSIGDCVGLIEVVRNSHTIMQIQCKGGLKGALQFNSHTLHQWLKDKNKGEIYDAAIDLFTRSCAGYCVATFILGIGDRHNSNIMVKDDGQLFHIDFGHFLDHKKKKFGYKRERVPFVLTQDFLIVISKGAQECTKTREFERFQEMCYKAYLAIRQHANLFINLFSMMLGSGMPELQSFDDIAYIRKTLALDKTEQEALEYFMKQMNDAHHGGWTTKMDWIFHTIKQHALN
Chain of PI3K-α (P27986 whole entry partner, species assumed): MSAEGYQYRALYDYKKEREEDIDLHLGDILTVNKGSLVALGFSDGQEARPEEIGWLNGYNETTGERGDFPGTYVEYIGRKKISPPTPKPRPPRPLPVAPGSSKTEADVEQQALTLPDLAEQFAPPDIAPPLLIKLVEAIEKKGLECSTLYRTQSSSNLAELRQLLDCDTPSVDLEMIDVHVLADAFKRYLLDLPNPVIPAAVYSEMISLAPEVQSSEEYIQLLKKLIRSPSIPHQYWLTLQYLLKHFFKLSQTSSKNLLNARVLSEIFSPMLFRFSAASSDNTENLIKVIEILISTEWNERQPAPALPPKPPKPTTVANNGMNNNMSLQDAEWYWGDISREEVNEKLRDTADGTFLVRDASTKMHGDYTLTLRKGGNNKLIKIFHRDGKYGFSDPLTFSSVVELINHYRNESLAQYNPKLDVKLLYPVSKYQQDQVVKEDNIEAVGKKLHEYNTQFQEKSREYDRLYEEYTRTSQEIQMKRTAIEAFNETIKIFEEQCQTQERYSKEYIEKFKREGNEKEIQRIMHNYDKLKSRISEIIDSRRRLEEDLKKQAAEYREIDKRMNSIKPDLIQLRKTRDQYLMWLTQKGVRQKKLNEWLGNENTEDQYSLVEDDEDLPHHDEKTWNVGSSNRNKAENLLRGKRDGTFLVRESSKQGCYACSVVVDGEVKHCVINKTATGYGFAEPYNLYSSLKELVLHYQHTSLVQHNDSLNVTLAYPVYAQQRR
Chain of PI3K-γ (P48736 whole entry, species assumed): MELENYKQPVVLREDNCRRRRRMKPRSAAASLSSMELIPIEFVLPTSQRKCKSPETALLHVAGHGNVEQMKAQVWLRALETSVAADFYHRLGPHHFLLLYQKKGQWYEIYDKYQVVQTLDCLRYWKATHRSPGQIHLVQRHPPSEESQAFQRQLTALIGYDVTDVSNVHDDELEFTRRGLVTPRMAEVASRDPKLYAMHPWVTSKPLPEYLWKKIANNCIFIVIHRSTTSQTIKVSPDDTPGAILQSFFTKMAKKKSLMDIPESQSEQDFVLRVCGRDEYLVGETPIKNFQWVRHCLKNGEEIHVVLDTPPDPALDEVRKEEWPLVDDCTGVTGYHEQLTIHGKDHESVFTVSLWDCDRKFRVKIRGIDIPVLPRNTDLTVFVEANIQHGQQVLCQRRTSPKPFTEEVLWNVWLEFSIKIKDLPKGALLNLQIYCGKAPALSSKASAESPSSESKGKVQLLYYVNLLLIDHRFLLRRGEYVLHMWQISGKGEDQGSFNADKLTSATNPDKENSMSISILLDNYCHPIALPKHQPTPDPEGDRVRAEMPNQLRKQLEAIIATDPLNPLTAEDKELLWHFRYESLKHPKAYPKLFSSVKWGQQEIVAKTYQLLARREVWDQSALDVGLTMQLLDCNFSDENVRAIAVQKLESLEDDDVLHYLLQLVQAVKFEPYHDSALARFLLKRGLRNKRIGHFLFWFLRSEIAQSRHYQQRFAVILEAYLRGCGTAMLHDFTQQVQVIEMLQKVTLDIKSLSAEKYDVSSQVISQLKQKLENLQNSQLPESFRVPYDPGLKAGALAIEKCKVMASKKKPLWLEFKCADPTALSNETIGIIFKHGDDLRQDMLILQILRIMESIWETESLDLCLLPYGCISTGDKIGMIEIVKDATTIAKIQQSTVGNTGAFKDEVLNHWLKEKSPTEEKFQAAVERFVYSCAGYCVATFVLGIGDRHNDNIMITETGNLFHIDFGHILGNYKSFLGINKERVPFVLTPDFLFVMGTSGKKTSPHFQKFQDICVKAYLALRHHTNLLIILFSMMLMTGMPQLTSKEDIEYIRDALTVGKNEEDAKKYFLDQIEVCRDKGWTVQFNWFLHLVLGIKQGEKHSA

A word on the IC50: it is the concentration that gives 50% inhibition. In the case of `O=C(Nc1ccc(C(=O)NCCN2CCCC2)cc1)Nc1ccc(-c2nc(N3CCOCC3)nc(N3C4CCCC3COC4)n2)cc1` [Example 798, 4-[({4-[4-morpholin-4-yl-6-(3-oxa-9-azabicyclo[3.3.1]non-9-yl)-1,3,5-triazin-2-yl]phenyl}carbamoyl)amino]-N-(2-pyrrolidin-1-ylethyl)benzamide], the 50% inhibitory concentration (IC50) in test [1] (72 h) was 3 nM; at PI3K-γ, 43.5 nM; on Human mTOR (FLAG-TOR), 0.445 nM; on PI3K-α it was 4.1 nM; in test [2], 24 nM.
The corresponding values for `O=C(Nc1ccc(C(=O)NCCN2CCCCC2)cc1)Nc1ccc(-c2nc(N3CCOCC3)nc(N3C4CCCC3COC4)n2)cc1` [Example 799, 4-[({4-[4-morpholin-4-yl-6-(3-oxa-9-azabicyclo[3.3.1]non-9-yl)-1,3,5-triazin-2-yl]phenyl}carbamoyl)amino]-N-(2-piperidin-1-ylethyl)benzamide] are below 3.2 nM, 71.5 nM, 0.5 nM, 5 nM and 24 nM.
`O=C(Nc1ccc(C(=O)N2CCC(N3CCCC3)CC2)cc1)Nc1ccc(-c2nc(N3CCOCC3)nc(N3C4CCCC3COC4)n2)cc1` [Example 800, 1-{4-[4-morpholin-4-yl-6-(3-oxa-9-azabicyclo[3.3.1]non-9-yl)-1,3,5-triazin-2-yl]phenyl}-3-{4-[(4-pyrrolidin-1-ylpiperidin-1-yl)carbonyl]phenyl}urea]: the IC50 in test [1] (MDA-MB-361, 72 h) is 1 nM; at PI3K-γ, 35.5 nM; on Human mTOR (FLAG-TOR) it was 0.72 nM; on PI3K-α, 5.5 nM; in test [2], 11 nM.
Turning to `CN1CCCC1CCNC(=O)c1ccc(NC(=O)Nc2ccc(-c3nc(N4CCOCC4)nc(N4C5CCCC4COC5)n3)cc2)cc1` (centres unmarked) [Example 801, N-[2-(1-methylpyrrolidin-2-yl)ethyl]-4-[({4-[4-morpholin-4-yl-6-(3-oxa-9-azabicyclo[3.3.1]non-9-yl)-1,3,5-triazin-2-yl]phenyl}carbamoyl)amino]benzamide], the concentration for half-maximal inhibition (IC50) in test [1] (72 h) is 3 nM; on PI3K-γ it was 38 nM; on Human mTOR (FLAG-TOR), 0.455 nM; at PI3K-α, 5 nM; in test [2] it was 32 nM.
Regarding `CNCCN(C)C(=O)c1ccc(NC(=O)Nc2ccc(-c3nc(N4CCOCC4)nc(N4C5CCCC4COC5)n3)cc2)cc1` [Example 802, N-methyl-N-[2-(methylamino)ethyl]-4-[({4-[4-morpholin-4-yl-6-(3-oxa-9-azabicyclo[3.3.1]non-9-yl)-1,3,5-triazin-2-yl]phenyl}carbamoyl)amino]benzamide], the IC50 in test [1] (72 h) was 3 nM; on PI3K-γ, 23 nM; at Human mTOR (FLAG-TOR), 0.675 nM; on PI3K-α, 3.5 nM; in test [2] it was 50 nM.
Take `CCN1CCN(C(=O)c2ccc(NC(=O)Nc3ccc(-c4nc(N5CCOCC5)nc(N5C6CCC5COC6)n4)cc3)cc2)CC1` [Example 803, 1-{4-[(4-ethylpiperazin-1-yl)carbonyl]phenyl}-3-{4-[4-morpholin-4-yl-6-(3-oxa-8-azabicyclo[3.2.1]oct-8-yl)-1,3,5-triazin-2-yl]phenyl}urea]: the IC50 in test [1] (MDA-MB-361, 72 h) turned out to be 1 nM; on PI3K-γ, 29 nM; at Human mTOR (FLAG-TOR), 0.19 nM; on PI3K-α, 3 nM; in test [2], 6 nM.
With `CCN1CCN(C(=O)c2ccc(NC(=O)Nc3ccc(-c4nc(N5CCOCC5)nc(N5C6CCCC5COC6)n4)cc3)cc2)CC1` [Example 804, 1-{4-[(4-ethylpiperazin-1-yl)carbonyl]phenyl}-3-{4-[4-morpholin-4-yl-6-(3-oxa-9-azabicyclo[3.3.1]non-9-yl)-1,3,5-triazin-2-yl]phenyl}urea], the IC50 turned out to be 3 nM in test [1] (MDA-MB-361, 72 h); 59.5 nM on PI3K-γ; 0.425 nM on Human mTOR (FLAG-TOR); 6 nM on PI3K-α; 11 nM in test [2].
In the case of `CCN1CCN(C(=O)c2ccc(NC(=O)Nc3ccc(-c4nc(N5CCOCC5)nc(N5C6COCC5COC6)n4)cc3)cc2)CC1` [Example 806, 1-{4-[4-(3,7-dioxa-9-azabicyclo[3.3.1]non-9-yl)-6-morpholin-4-yl-1,3,5-triazin-2-yl]phenyl}-3-{4-[(4-ethylpiperazin-1-yl)carbonyl]phenyl}urea], the IC50 in test [1] (MDA-MB-361, 72 h) is below 3.2 nM; on PI3K-γ it was 47 nM; on Human mTOR (FLAG-TOR) it was 0.24 nM; on PI3K-α it was 4.5 nM; in test [2], 9 nM.
The corresponding values for `CN(C)C1CCN(C(=O)c2ccc(NC(=O)Nc3ccc(-c4nc(N5CCOCC5)nc(N5CC6CCC5CO6)n4)cc3)cc2)CC1` (centres unmarked) [Example 810, 1-(4-{[4-(dimethylamino)piperidin-1-yl]carbonyl}phenyl)-3-{4-[4-morpholin-4-yl-6-(2-oxa-5-azabicyclo[2.2.2]oct-5-yl)-1,3,5-triazin-2-yl]phenyl}urea] are 2 nM, 30.5 nM, 2.05 nM, 2.8 nM and 26 nM.
Consider `CC(C)N1CCN(C(=O)c2ccc(NC(=O)Nc3ccc(-c4nc(N5CCOCC5)nc(N5CC6CCC5CO6)n4)cc3)cc2)CC1` (centres unmarked) [Example 811, 1-(4-{[4-(1-methylethyl)piperazin-1-yl]carbonyl}phenyl)-3-{4-[4-morpholin-4-yl-6-(2-oxa-5-azabicyclo[2.2.2]oct-5-yl)-1,3,5-triazin-2-yl]phenyl}urea], for which the concentration for half-maximal inhibition (IC50) is 2 nM in test [1] (MDA-MB-361, 72 h); 33.5 nM at PI3K-γ; 1.5 nM on Human mTOR (FLAG-TOR); 3.2 nM on PI3K-α; 19 nM in test [2].
Regarding `CCN1CCN(C(=O)c2ccc(NC(=O)Nc3ccc(-c4nc(N5CCOCC5)nc(N5CC6CCC5CO6)n4)cc3)cc2)CC1` (centres unmarked) [Example 812, 1-{4-[(4-ethylpiperazin-1-yl)carbonyl]phenyl}-3-{4-[4-morpholin-4-yl-6-(2-oxa-5-azabicyclo[2.2.2]oct-5-yl)-1,3,5-triazin-2-yl]phenyl}urea], the IC50 in test [1] (MDA-MB-361, 72 h) came to 3 nM; on PI3K-γ, 30.5 nM; on Human mTOR (FLAG-TOR), 2 nM; on PI3K-α, 2.8 nM; in test [2], 23 nM.
The corresponding values for `CN1CCN(C(=O)c2ccc(NC(=O)Nc3ccc(-c4nc(N5CCOCC5)nc(N5CC6CCC5CO6)n4)cc3)cc2)CC1` (centres unmarked) [Example 813, 1-{4-[(4-methylpiperazin-1-yl)carbonyl]phenyl}-3-{4-[4-morpholin-4-yl-6-(2-oxa-5-azabicyclo[2.2.2]oct-5-yl)-1,3,5-triazin-2-yl]phenyl}urea] are below 3.2 nM, 30 nM, 1.9 nM, 3.1 nM and 24 nM.
Consider `O=C(Nc1ccc(C(=O)N2CCNCC2)cc1)Nc1ccc(-c2nc(N3CCOCC3)nc(N3CC4CCC3CO4)n2)cc1` (centres unmarked) [Example 814, 1-{4-[4-morpholin-4-yl-6-(2-oxa-5-azabicyclo[2.2.2]oct-5-yl)-1,3,5-triazin-2-yl]phenyl}-3-[4-(piperazin-1-ylcarbonyl)phenyl]urea], for which the 50% inhibitory concentration (IC50) in test [1] (MDA-MB-361, 72 h) was 4 nM; on PI3K-γ, 10 nM; on Human mTOR (FLAG-TOR), 1.05 nM; at PI3K-α, 0.8 nM; in test [2], 37 nM.
